pEC50: −log10 of the molar value.
Columns and labels:
HepG2 [1] = assay: Induction of ABCA1 mRNA expression in human HepG2 cells at 5 uM relative to control; assay type: functional
HepG2 [2] = assay: Induction of SREBP-1c mRNA expression in human HepG2 cells at 5 uM relative to control; assay type: functional
HepG2 [3] = assay: Ratio of induction of ABCA1 mRNA expression to SREBP-1c mRNA expression in human HepG2 cells at 5 uM; assay type: functional
[4] = molecular target: T1, Oxysterols receptor LXR-alpha (Homo sapiens, UniProt Q13133); assay: Agonist activity at Gal4-tagged LXRalpha (unknown origin) expressed in CHOK1 cells after 24 hrs by luciferase reporter gene assay; assay type: cell-based, CHO-K1; settings: for pEC50: read-out: EC50; for EC50: cho-k1
T1 sequence (Q13133 whole entry): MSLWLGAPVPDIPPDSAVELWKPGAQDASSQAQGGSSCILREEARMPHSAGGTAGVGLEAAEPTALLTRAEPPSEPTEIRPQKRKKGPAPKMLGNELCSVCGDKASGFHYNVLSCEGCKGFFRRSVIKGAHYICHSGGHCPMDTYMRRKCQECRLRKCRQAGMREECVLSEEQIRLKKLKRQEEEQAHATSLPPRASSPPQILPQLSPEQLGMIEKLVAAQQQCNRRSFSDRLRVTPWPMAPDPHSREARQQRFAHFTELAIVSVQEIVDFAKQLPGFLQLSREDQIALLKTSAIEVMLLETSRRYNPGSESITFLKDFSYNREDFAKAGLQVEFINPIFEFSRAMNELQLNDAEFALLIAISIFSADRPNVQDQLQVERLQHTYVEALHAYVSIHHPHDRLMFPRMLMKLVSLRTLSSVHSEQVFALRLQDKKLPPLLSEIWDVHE

[5] = molecular target: T2, Oxysterols receptor LXR-beta (Homo sapiens, UniProt P55055); assay: Agonist activity at Gal4-tagged LXRbeta (unknown origin) expressed in CHOK1 cells after 24 hrs by luciferase reporter gene assay; assay type: cell-based, CHO-K1; settings: for pEC50: read-out: EC50; for EC50: cho-k1
T2 sequence (P55055 whole entry): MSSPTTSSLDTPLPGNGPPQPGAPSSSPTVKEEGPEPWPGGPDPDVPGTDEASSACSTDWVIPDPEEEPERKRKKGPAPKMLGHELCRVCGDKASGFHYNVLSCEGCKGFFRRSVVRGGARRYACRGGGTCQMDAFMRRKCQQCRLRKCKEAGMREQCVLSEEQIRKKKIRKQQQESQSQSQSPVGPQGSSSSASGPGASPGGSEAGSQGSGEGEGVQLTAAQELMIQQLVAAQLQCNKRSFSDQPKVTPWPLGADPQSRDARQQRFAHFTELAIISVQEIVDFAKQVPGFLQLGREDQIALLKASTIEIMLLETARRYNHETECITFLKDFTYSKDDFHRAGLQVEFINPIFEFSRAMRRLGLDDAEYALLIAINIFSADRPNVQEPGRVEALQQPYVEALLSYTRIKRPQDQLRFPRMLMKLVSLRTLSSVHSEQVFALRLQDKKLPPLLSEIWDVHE

With `O=c1cc(C(F)(F)F)c2cc3c4c(c2o1)CCCN4CCC3` the “fold change (FC)” value (HepG2 [1]) was 9.1, the “fold change (FC)” value (HepG2 [2]) was 3.9 and the Ratio (HepG2 [3]) was 2.3.

`CC(C)c1cc(=O)oc2c3c4c(cc12)CCCN4CCC3` was tested, and the “fold change (FC)” value (HepG2 [1]) was 5, the “fold change (FC)” value (HepG2 [2]) was 1.4 and the Ratio (HepG2 [3]) was 3.6.

In the case of `CCN(CC)c1ccc2c(C(F)(F)F)cc(=O)oc2c1`, the “fold change (FC)” value (HepG2 [1]) was 1.3, the “fold change (FC)” value (HepG2 [2]) was 3.3 and the Ratio (HepG2 [3]) was 0.4.

In the case of `CCCc1cc2c(C(F)(F)F)cc(=O)oc2c(CCC)c1OCCCCN1C(=O)CSC1=O`, the pEC50 [4] was 5.59 and the pEC50 [5] was 5.85.

`CCCc1cc2c(C(F)(F)F)cc(=O)oc2c(CCC)c1OCCCCN1C(=O)CN(C)C1=O` gave a pEC50 [4] of 5.59 and a pEC50 [5] of 5.89.

Compound `CCCc1cc2c(C(F)(F)F)cc(=O)oc2c(CCC)c1OCCCCN1C(=O)CCC1=O` has a pEC50 [5] of 5.85.

`CCCc1cc2c(C(F)(F)F)cc(=O)oc2c(CCC)c1OCCCCN1CCOC1=O` showed a pEC50 [5] of 5.66.

With `CCCc1cc2c(C(F)(F)F)cc(=O)oc2c(CCC)c1OCCCCN1CCCC1=O` the EC50 [4] was “Not Active” and the EC50 [5] was “Not Active”.

With `CCCc1cc2c(C(F)(F)F)cc(=O)oc2c(CCC)c1OCCCCN1C(=O)C(C)N(C)C1=O` (stereo not given) the pEC50 [4] was 5.77 and the pEC50 [5] was 5.89.

In the case of `CCCc1cc2c(C(F)(F)F)cc(=O)oc2c(CCC)c1OCCCCN1C(=O)N(C)C(C)(C)C1=O`, the pEC50 [4] was 4.96 and the pEC50 [5] was 5.33.

`CCCc1cc2c(C(F)(F)F)cc(=O)oc2c(CCC)c1OCCCCN1C(=O)NC(C)C1=O` (stereo not given) showed a pEC50 [4] of 5.82 and a pEC50 [5] of 5.89.

In the case of `CCCc1cc2c(C(F)(F)F)cc(=O)oc2c(CCC)c1OCCCCN1C(=O)N(C)C(C)(c2ccccc2)C1=O` (stereo not given), the EC50 [4] was “Not Active” and the EC50 [5] was “Not Active”.

In the case of `CCCc1cc2c(C(F)(F)F)cc(=O)oc2c(CCC)c1OCCCCN1C(=O)NC(C)(c2ccccc2)C1=O` (stereo not given), the EC50 [4] was “Not Active” and the pEC50 [5] was 5.28.

For `CCCc1cc2c(C(F)(F)F)cc(=O)oc2c(CCC)c1OCCCCN1C(=O)NC(C)(c2ccc(C)cc2)C1=O` (stereo not given), the EC50 [4] was “Not Active” and the pEC50 [5] was 5.62.

For `CCCc1cc2c(C(F)(F)F)cc(=O)oc2c(CCC)c1OCCCCN1C(=O)NC(C)(c2ccccc2OC)C1=O` (stereo not given), the EC50 [4] was “Not Active” and the EC50 [5] was “Not Active”.

For `CCCc1cc2c(C(F)(F)F)cc(=O)oc2c(CCC)c1OCCCCN1C(=O)NC(C)(c2cccc(OC)c2)C1=O` (stereo not given), the EC50 [4] was “Not Active” and the EC50 [5] was “Not Active”.

`CCCc1cc2c(C(F)(F)F)cc(=O)oc2c(CCC)c1OCCCCN1C(=O)NC(C)(c2ccc(OC)cc2)C1=O` (stereo not given) was tested, and the EC50 [4] was “Not Active” and the pEC50 [5] was 6.02.

From ChEMBL document CHEMBL3399967, “Design and discovery of 2-oxochromene derivatives as liver X receptor β-selective agonists” (Bioorg Med Chem Lett, 2015)
